Measured values from patent publication US20250034171A1, “IMIDAZOPYRIDINE AMIDES AND RELATED COMPOUNDS FOR USE IN THE TREATMENT OF BACTERIAL INFECTIONS” (priority 2021, published 2025).
Converted amounts (≈) assume the structure as drawn. Read-outs that look alike come from different tables or passages of the source.

Test system: Mycobacterium tuberculosis strain H37Rv
Test: Test 2: MIC determination against M. tuberculosis, resazurin fluorescence
Assay type: cell-based
Settings: Test 2, M. tuberculosis H37Rv; for MIC90: read-out: Bacterial activity MIC90; for IC50: read-out: Bacterial activity pMIC50 (converted)
[1] = Mycobacterium tuberculosis, H37RV

Compound | MIC90 [1] | IC50 [1] | Bacterial activity pMIC50 | MIC90
CCc1nc2ncc(C)cn2c1C(=O)NCc1ccc(-c2nc3n(n2)CCC(F)C3)cc1 (stereo not drawn) [Compound 96] | 0.094 µM (≈ 0.0407 µg/mL) | 33900 pM | – | –
CCc1nc2ncc(C)cn2c1C(=O)NCc1ccc(-c2nc3n(n2)CCC(C)C3)c(F)c1 (stereo not drawn) [Compound 97] | 0.057 µM (≈ 0.0255 µg/mL) | 19100 pM | – | –
CCOC1CCn2nc(-c3ccc(CNC(=O)c4c(CC)nc5ncc(C)cn45)cc3)nc2C1 (stereo not drawn) [Compound 98] | 0.11 µM (≈ 0.0506 µg/mL) | 27500 pM | – | –
CCc1nc2nc(C)ccn2c1C(=O)NCc1ccc(-c2nc3n(n2)CCC(C(F)F)C3)cc1 (stereo not drawn) [Compound 99] | 0.22 µM (≈ 0.102 µg/mL) | 70800 pM | – | –
Cc1cnc2nc(C(C)C)c(C(=O)NCc3ccc(-c4cn5c(n4)CC(C(F)(F)F)CC5)cc3)n2c1 (stereo not drawn) [Compound 100] | 0.2 µM (≈ 0.0993 µg/mL) | 61700 pM | – | –
O=C(NCc1cnc(-c2cn3c(n2)CC(C(F)(F)F)CC3)c(F)c1)c1c(C(F)(F)F)nc2ccccn12 (stereo not drawn) [Compound 101] | 3.95 µM (≈ 2.08 µg/mL) | 2e+06 pM | – | –
CCc1nc2ncc(C)cn2c1C(=O)NCc1ccc(-c2nc3n(n2)CCC(OC)C3)c(F)c1 (stereo not drawn) [Compound 107] | 0.33 µM (≈ 0.153 µg/mL) | 135000 pM | – | –
CCc1nc2ncc(C)cn2c1C(=O)NCc1ccc(-c2cn3c(n2)CC(CC)CC3)cc1 (stereo not drawn) [Compound 109] | – | – | 8.04 | 0.024 µM (≈ 0.0106 µg/mL)
CCc1nc2ncc(C)cn2c1C(=O)NCc1ccc(-c2nc3n(n2)CCC(CC(F)(F)F)C3)cc1 (stereo not drawn) [Compound 110] | 0.016 µM (≈ 0.00796 µg/mL) | 5890 pM | – | –
CCc1nc2ncc(OC)cn2c1C(=O)NCc1ccc(-c2cn3c(n2)C[C@H](C(F)(F)F)CC3)cc1 [Compound 111] | 0.012 µM (≈ 0.00598 µg/mL) | 4680 pM | – | –
CCc1nc2ncc(OC)cn2c1C(=O)NCc1ccc(-c2cn3c(n2)C[C@@H](C(F)(F)F)CC3)cc1 [Compound 112] | 0.027 µM (≈ 0.0135 µg/mL) | 8510 pM | – | –
CCc1nc2cc(F)ccn2c1C(=O)NCc1ccc(-c2cn3c(n2)C[C@@H](C(F)(F)F)CC3)cc1 [Compound 113] | 0.034 µM (≈ 0.0165 µg/mL) | 12900 pM | – | –
CCc1nc2cc(F)ccn2c1C(=O)NCc1ccc(-c2cn3c(n2)C[C@H](C(F)(F)F)CC3)cc1 [Compound 114] | 0.032 µM (≈ 0.0155 µg/mL) | 7590 pM | – | –
CCc1nc2ncc(C)cn2c1C(=O)NCc1ccc(-c2nc3n(n2)CCC(C)(COC)C3)cc1 (stereo not drawn) [Compound 115] | 0.096 µM (≈ 0.0455 µg/mL) | 24500 pM | – | –
CCc1nc2ncc(C)cn2c1C(=O)NCc1ccc(-c2cn3c(n2)CCC(C(F)(F)F)C3)cc1 (stereo not drawn) [Compound 116] | 0.0097 µM (≈ 0.00468 µg/mL) | 4570 pM | – | –
CCc1nc2ncc(C)cn2c1C(=O)NCc1ccc(-c2cn3c(n2)CC(C(F)(F)F)CC3)c(F)c1 (stereo not drawn) [Compound 117] | 0.077 µM (≈ 0.0385 µg/mL) | 3090 pM | – | –
CCc1nc2ncc(OC)cn2c1C(=O)NCc1ccc(-c2nc3n(n2)CCCC3)cc1 [Compound 119] | – | – | 7.72 | 0.052 µM (≈ 0.0224 µg/mL)
CCc1nc2ncc(C)cn2c1C(=O)NCc1ccc(-c2cn3c(n2)CC(C(F)(F)F)CC3)c(C)c1 (stereo not drawn) [Compound 121] | 0.035 µM (≈ 0.0174 µg/mL) | 8710 pM | – | –
CCc1nc2ncc(C)cn2c1C(=O)NCc1cnc(-c2cn3c(n2)CC(C(F)(F)F)CC3)cc1C (stereo not drawn) [Compound 122] | 0.21 µM (≈ 0.104 µg/mL) | 43700 pM | – | –
CCc1nc2ncc(C)cn2c1C(=O)NCc1cnc(-c2cn3c(n2)CC(C(F)(F)F)CC3)c(C)c1 (stereo not drawn) [Compound 123] | > 0.5 µM | > 501000 pM | – | –

Compound | MIC90 [1] | IC50 [1] | Bacterial activity pMIC50 | MIC90
CCc1nc2ncc(C)cn2c1C(=O)NCc1ccc(-c2nc3n(n2)CC(C)CC3)cc1 (stereo not drawn) [Compound 125] | 0.04 µM (≈ 0.0172 µg/mL) | 11200 pM | – | –
CCc1nc2ccccn2c1C(=O)NCc1ccc(-c2nc3n(n2)CCC(C(C)(F)F)C3)cc1 (stereo not drawn) [Compound 133] | 0.051 µM (≈ 0.0237 µg/mL) | 11700 pM | – | –
CCc1nc2n(c1C(=O)NCc1ccc(-c3nc4n(n3)CCC(C(C)(F)F)C4)cc1)CCCC2 (stereo not drawn) [Compound 134] | 0.12 µM (≈ 0.0562 µg/mL) | 25700 pM | – | –
CCc1nc2nc(CN)ccn2c1C(=O)NCc1ccc(-c2nc3n(n2)CCC(C(F)(F)F)C3)cc1 (stereo not drawn) [Compound 138] | > 0.5 µM | > 501000 pM | – | –
CCc1nc2n(c1C(=O)NCc1ccc(-c3nc4n(n3)CC[C@@H](C(F)(F)F)C4)cc1)C[C@H](OC)CC2 [Compound 140] | 0.33 µM (≈ 0.166 µg/mL) | 115000 pM | – | –
CCc1nc2n(c1C(=O)NCc1ccc(-c3nc4n(n3)CC[C@H](C(F)(F)F)C4)cc1)C[C@H](OC)CC2 [Compound 141] | > 0.5 µM | 166000 pM | – | –
CCc1nc2n(c1C(=O)NCc1ccc(-c3cn4c(n3)C[C@@H](C(F)(F)F)CC4)cc1)CCCC2 [Compound 142] | 0.097 µM (≈ 0.0457 µg/mL) | 22900 pM | – | –
CCc1nc2ncc(C)cn2c1C(=O)NCc1ccc(-c2nc3n(n2)CCC(COC)C3)c(F)c1 (stereo not drawn) [Compound 143] | 0.092 µM (≈ 0.0439 µg/mL) | 33100 pM | – | –
CCc1nc2cc(F)ccn2c1C(=O)NCc1ccc(-c2nc3n(n2)CCC(C(C)(F)F)C3)cc1 (stereo not drawn) [Compound 145] | 0.041 µM (≈ 0.0198 µg/mL) | 11500 pM | – | –
CCc1nc2ncc(C)cn2c1C(=O)NCc1ccc(-c2cc3n(n2)CCCC3)c(C)n1 [Compound 146] | 0.15 µM (≈ 0.0644 µg/mL) | 42700 pM | – | –
CCc1nc2ncc(C)cn2c1C(=O)NCc1ccc(-c2cn3c(n2)CC(C(F)F)CC3)cc1 (stereo not drawn) [Compound 147] | – | – | 7.82 | 0.05 µM (≈ 0.0232 µg/mL)
CCc1nc2ncc(C)cn2c1C(=O)NCc1ccc(-c2nc3n(n2)CCCC3)c(C)n1 [Compound 148] | > 0.5 µM | 331000 pM | – | –
CCc1nc2ncccn2c1C(=O)NCc1ccc(-c2nc3n(n2)CCC(C)C3)cc1 (stereo not drawn) [Compound 149] | > 0.5 µM | 229000 pM | – | –
[2H]C([2H])([2H])c1cnc2nc(CC)c(C(=O)NCc3ccc(-c4nc5n(n4)CC[C@@H](C)C5)cc3)n2c1 [Compound 150] | 0.03 µM (≈ 0.013 µg/mL) | 10000 pM | – | –
CCc1nc2ccc(C(F)(F)F)cn2c1C(=O)NCc1ccc(-c2cn3c(n2)C[C@@H](C(F)(F)F)CC3)cc1 [Compound 153] | > 0.5 µM | > 501000 pM | – | –
CCc1nc2ccc(C(F)(F)F)cn2c1C(=O)NCc1ccc(-c2cn3c(n2)C[C@H](C(F)(F)F)CC3)cc1 [Compound 154] | > 0.5 µM | > 501000 pM | – | –
CCc1nc2ncc(C(F)(F)F)cn2c1C(=O)NCc1ccc(-c2nc3n(n2)CC[C@@H](C)C3)cc1 [Compound 155] | > 0.5 µM | > 501000 pM | – | –
CCc1nc2ncccn2c1C(=O)NCc1ccc(-c2nc3n(n2)CC[C@@H](C)C3)cc1 [Compound 156] | > 0.5 µM | 191000 pM | – | –
CCc1nc2ncccn2c1C(=O)NCc1ccc(-c2nc3n(n2)CC[C@H](C)C3)cc1 [Compound 157] | 0.41 µM (≈ 0.17 µg/mL) | 126000 pM | – | –
CCc1nc2ncccn2c1C(=O)NCc1ccc(-c2cn3c(n2)C[C@H](C(F)(F)F)CC3)cc1 [Compound 158] | 0.29 µM (≈ 0.136 µg/mL) | 75900 pM | – | –

Compound | MIC90 [1] | IC50 [1] | Bacterial activity pMIC50 | MIC90
CCc1nc2ccccn2c1C(=O)NCc1ccc(-c2nc3n(n2)CC[C@H](C)C3)cc1 [Compound 159] | 0.037 µM (≈ 0.0153 µg/mL) | 11000 pM | – | –
CCc1nc2n(c1C(=O)NCc1ccc(-c3nc4n(n3)CC[C@H](C)C4)cc1)CCCC2 [Compound 160] | 0.088 µM (≈ 0.0368 µg/mL) | 35500 pM | – | –
CCc1nc2ccccn2c1C(=O)NCc1ccc(-c2cn3c(n2)C[C@@H](C(F)(F)F)CC3)cc1 [Compound 161] | 0.056 µM (≈ 0.0262 µg/mL) | 18600 pM | – | –
CCc1nc2ccccn2c1C(=O)NCc1ccc(-c2nc3n(n2)CC[C@@H](C)C3)cc1 [Compound 162] | 0.044 µM (≈ 0.0182 µg/mL) | 11200 pM | – | –
CCc1nc2n(c1C(=O)NCc1ccc(-c3nc4n(n3)CC[C@@H](C)C4)cc1)CCCC2 [Compound 163] | 0.17 µM (≈ 0.0712 µg/mL) | 66100 pM | – | –
CCc1nc2n(c1C(=O)NCc1ccc(-c3cn4c(n3)C[C@H](C(F)(F)F)CC4)cc1)CCCC2 [Compound 164] | 0.058 µM (≈ 0.0273 µg/mL) | 17000 pM | – | –
CCc1nc2ccccn2c1C(=O)NCc1ccc(-c2cn3c(n2)C[C@H](C(F)(F)F)CC3)cc1 [Compound 165] | 0.055 µM (≈ 0.0257 µg/mL) | 16200 pM | – | –
CCc1nc2ncccn2c1C(=O)NCc1ccc(-c2cn3c(n2)C[C@@H](C(F)(F)F)CC3)cc1 [Compound 166] | > 0.5 µM | 145000 pM | – | –
CCc1nc2n(c1C(=O)NCc1ccc(-c3nc4n(n3)CC[C@@H](C(F)(F)F)C4)cc1)C[C@@H](OC)CC2 [Compound 167] | 0.45 µM (≈ 0.226 µg/mL) | 132000 pM | – | –
CCc1nc2n(c1C(=O)NCc1ccc(-c3nc4n(n3)CC[C@H](C(F)(F)F)C4)cc1)C[C@@H](OC)CC2 [Compound 168] | 0.5 µM (≈ 0.251 µg/mL) | 174000 pM | – | –
O=C(NCc1ccc(-c2nc3n(n2)CC[C@H](C(F)(F)F)C3)cc1)c1c(C(F)(F)F)nc2ncccn12 [Compound 170] | > 0.45 µM | > 275000 pM | – | –
CCc1nc2ncccn2c1C(=O)NCc1ccc(-c2nc3n(n2)CC[C@@H](C(F)(F)F)C3)cc1 [Compound 171] | 0.18 µM (≈ 0.0845 µg/mL) | 46800 pM | – | –
CCc1nc2ncc(C(F)(F)F)cn2c1C(=O)NCc1ccc(-c2nc3n(n2)CC[C@@H](C(F)(F)F)C3)cc1 [Compound 172] | > 0.46 µM | > 295000 pM | – | –
CCc1nc2ncc(C(F)(F)F)cn2c1C(=O)NCc1ccc(-c2nc3n(n2)CC[C@H](C(F)(F)F)C3)cc1 [Compound 173] | – | – | <6.49 | >0.47 µM
CCc1nc2ncc(Cl)cn2c1C(=O)NCc1ccc(-c2cn3c(n2)C[C@H](C(F)(F)F)CC3)cc1 [Compound 175] | 0.059 µM (≈ 0.0297 µg/mL) | 21900 pM | – | –
CCc1nc2ncc(Cl)cn2c1C(=O)NCc1ccc(-c2cn3c(n2)C[C@@H](C(F)(F)F)CC3)cc1 [Compound 176] | 0.039 µM (≈ 0.0196 µg/mL) | 12600 pM | – | –
CCc1nc2ncccn2c1C(=O)NCc1ccc(-c2nc3n(n2)C[C@@H](C(F)(F)F)CC3)cc1 [Compound 181] | 0.22 µM (≈ 0.103 µg/mL) | 57500 pM | – | –
CCc1nc2ncccn2c1C(=O)NCc1ccc(-c2nc3n(n2)C[C@H](C(F)(F)F)CC3)cc1 [Compound 182] | 0.2 µM (≈ 0.0939 µg/mL) | 52500 pM | – | –
CCc1nc2n(c1C(=O)NCc1ccc(-c3cn4c(n3)CC(C(F)(F)F)CC4)c(F)c1)CCCC2 (stereo not drawn) [Compound 185] | 0.034 µM (≈ 0.0166 µg/mL) | 9770 pM | – | –
CCc1nc2ncccn2c1C(=O)NCc1ccc(-c2cc3n(n2)CCCC3)cc1 [Compound 187] | > 0.5 µM | 151000 pM | – | –
